According to paper PMC12467740, “Synthesis, Characterization, and Screening Anticancer—Antibiofilm Activities of Theophylline Derivatives Containing CF3/OCF3 Moiety” (Biology, 2025):
Where “and” joins values, the source holds several entries; their conditions need not be identical. Identical values can stand only once.

Columns and labels:
CYP450 = conditions: cited from earlier work
BEAS-2B cells = test: MTT cell viability assay, BEAS-2B; assay type: cell-based; conditions: Homo sapiens, 48 h, mean ± SD (n = 3)
Experimental: (§1) The anticancer potential of substituted theophylline derivatives was investigated using human lung carcinoma (A549, CCL-185) and cervical cancer (HeLa, CCL-2) cell lines obtained from the American Type Culture Collection (ATCC). To evaluate the selectivity of the tested compounds, cytotoxicity was also assessed in a healthy human bronchial epithelial cell line (BEAS-2B, ATCC CRL-9609). Cells were maintained in DMEM (Euroclone S.p.A., Pero, Italy supplemented with 10% fetal bovine serum (Sigma-Aldrich, St. Louis, MO, USA) and 1% penicillin–streptomycin (1%, Capricorn Scientific GmbH, Ebsdorfergrund, Germany at 37 °C in a humidified atmosphere containing 5% CO2. The theophylline-derived compounds (1a–1e) were dissolved in DMSO to prepare 100 mM stock solutions, which were then diluted with DMEM to obtain final working concentrations ranging from 3.125 µM to 100 µM. To evaluate cell viability, the MTT colorimetric assay was employed. Upon reaching logarithmic growth, A549, HeLa and BEAS-2B cells were seeded at a density of 7000 cells per well in 96-well microplates and allowed to attach for 24 h. Following this, cells were treated with different concentrations of the compounds and incubated for 48 h. After treatment, 100 µL of fresh medium and 20 µL of MTT reagent (5 mg/mL, Bio Basic Inc., Markham, ON, Canada) were added to each well, and cells were incubated for an additional 3 h. The resulting formazan crystals were solubilized with DMSO. Cell viability was calculated as the percentage of absorbance relative to untreated controls, and IC50 values were determined by nonlinear regression analysis using GraphPad Prism software, version 8.0 (GraphPad Software, San Diego, CA, USA. All experiments were performed in at least three independent replicates, and results are reported as mean ± SD. The percentage of inhibition was calculated based on the reduction in metabolic activity of the cells following compound treatment, as assessed by the MTT assay. The absorbance was measured at 570 nm using a microplate reader. The inhibition (%) was calculated using the following formula:Inhibition %=[1 − (Asample − Ablank)/[…]] × 100 To assess the tumor selectivity of the tested theophylline derivatives, the selectivity index (SI) was calculated for each compound. SI is defined as the ratio of the IC50 value in healthy (non-tumorigenic) cells to the IC50 value in cancer cells. In this study, IC50 values were determined for BEAS-2B (non-tumorigenic human bronchial epithelial cells) as a healthy control and for A549 (lung adenocarcinoma) and HeLa (cervical carcinoma) as tumor models. The SI was calculated according to the following equation:SI = [IC50, healthy/IC50, cancer]

A549 cells [1] = test: MTT cell viability assay, A549; assay type: cell-based, human; conditions: for IC50: MTT, 48 h, mean ± SD (n = 3); for SI (A549): ratio of IC50 in BEAS-2B cells to IC50 in A549 cells
Experimental: as §1

HeLa cells [2] = test: MTT cell viability assay, HeLa; assay type: cell-based, human; conditions: for IC50: 48 h, MTT, mean ± SD (n = 3); for SI (HeLa): ratio of IC50 in BEAS-2B cells to IC50 in HeLa cells
Experimental: as §1

A549 cells [3] = test: RT-qPCR of apoptosis-related genes, A549; assay type: cell-based, human; conditions: A549, IC50 concentration, 48 h, vs untreated control
Experimental: (§2) Total RNA was isolated from cells using the RNeasy Mini Kit (Qiagen GmbH, Hilden, Germany) according to the manufacturer’s instructions. RNA quality and quantity were evaluated spectrophotometrically. Subsequently, cDNA synthesis was performed using the iScript™ cDNA Synthesis Kit (Bio-Rad Laboratories, Hercules, CA, USA).
(§3) RT-qPCR reactions (LightCycler® 480 Instrument II (Roche Diagnostics, Mannheim, Germany) were carried out using SYBR™ Green PCR Master Mix (Applied Biosystems, Foster City, CA, USA) and gene-specific primers targeting pro-apoptotic genes (CASP3, CASP8, CASP9, BAX, BAK1, PUMA, NOXA, CYCS), anti-apoptotic genes (BCL2, BCL-XL, MCL1), cell cycle/stress-related genes (TP53, CDKN1A/p21, GADD45A, ATF4), and the reference gene GAPDH. The primer sequences used for each gene are presented in the Supplementary File (Figure S66).
(§4) All reactions were conducted in triplicate, and negative controls (no-template controls, NTC) were included in each run. Relative gene expression levels were analyzed using the 2^−ΔΔCt method, and results were normalized to control samples (control expression set as ‘1’) and expressed as fold change relative to controls.

HeLa cells [4] = test: RT-qPCR of apoptosis-related genes, HeLa; assay type: cell-based, human; conditions: IC50 concentration, 48 h, vs untreated control
Experimental: as §2, §3, §4

A549 cells [5] = test: ELISA of apoptosis-related proteins, A549; assay type: cell-based, human; conditions: A549, IC50, 48 h, vs untreated controls
Experimental: (§5) To validate the gene expression changes observed in the RT-qPCR analysis at the protein level, ELISA assays were conducted to measure the protein levels in A549 and HeLa cells. […] Following incubation, cells were washed with cold PBS and lysed using RIPA buffer supplemented with protease and phosphatase inhibitors. […] was removed by centrifugation at 14,000× g for 10 min. Total protein concentration in the cell lysates was determined spectrophotometrically using the BCA Protein Assay Kit (Thermo Scientific, Waltham, MA, USA). Protein concentrations were standardized to equal amounts across all samples prior to ELISA analysis. Commercially available Human ELISA Kit (Abcam, Cambridge, UK) were used to quantify Caspase-3, BAX, BCL-2, and Cytochrome C levels, and all assays were performed according to the manufacturers’ protocols. Absorbance was measured at 450 nm using a microplate reader. All experiments were conducted in triplicate. The results were normalized to the control group (control = 1) and expressed as fold change relative to untreated controls.

HeLa cells [6] = test: ELISA of apoptosis-related proteins, HeLa; assay type: cell-based, human; conditions: IC50, 48 h, vs untreated controls
Experimental: as §5

Escherichia coli = test: Well plate biofilm formation assay (crystal violet); assay type: cell-based; conditions: over the concentration range given per compound (Table 4)
Experimental: (§6) The well plate assay was utilized to test the effectiveness of compounds in inhibiting biofilms made by microorganisms. An amount of 100 μL of Brucella broth (Remel, Lenexa, KS, USA) containing 1% and 20% glucose (Biolife, Milan, Italy), were dispensed into the test wells. In the next step, 100 μL of compounds ranging from 0.244 to 1000 μg/mL were poured into the wells. […] Then, 0.5 McFarland standard in physiological saline from each microorganism strain were prepared and 20 μL of the prepared suspension was added to the wells. A column of the microplate containing 100 μL Brucella broth served as a negative control and another column of the microplate containing 100 μL Brucella with 20 μL of each microorganism added served as a growth control. As positive controls, ciprofloxacin was applied against bacterial strains at a concentration range of 0.03125-64 μg/mL, and fluconazole was used against Candida albicans at a concentration range of 0.3125-640 μg/mL. Plates were left to incubate at 36.5 °C for a day. The plates were emptied and then washed three times with 300 μL of deionized water. The wells were left to dry for half an hour. The next step was staining with 0.1% (w/v) violet dye ([…]), cleaning three times with deionized water, and drying at room temperature. The crystal violet adhering to the wall of the wells was dissolved with 95% ethanol, and the optical density was measured at 570 nm. The test was run two times, and the mean value was calculated. Biofilm preventing (%) = {(ODb - ODc)/ODb} × 100.

Pseudomonas aeruginosa = test: as above; assay type: cell-based; conditions: over the concentration range given per compound (Table 4)
Experimental: as §6

Staphylococcus aureus = test: as above; assay type: cell-based; conditions: over the concentration range given per compound (Table 4); 1c and 1e at 1000 µg/mL
Experimental: as §6

Candida albicans = test: as above; assay type: cell-based; conditions: over the concentration range given per compound (Table 4)
Experimental: as §6

Enterococcus faecalis = test: as above; assay type: cell-based; conditions: over the concentration range given per compound (Table 4)
Experimental: as §6

SMILES	IC50 (BEAS-2B cells) [µM]	IC50 (A549 cells [1]; Homo sapiens, A549, 48 h) [µM]	IC50 (A549 cells [1]) [µM]	SI (A549) (A549 cells [1])	IC50 (HeLa cells [2]; Homo sapiens, HeLa) [µM]	SI (HeLa) (HeLa cells [2])	Antibiofilm activity Escherichia coli (Escherichia coli)	Antibiofilm activity Pseudomonas aeruginosa (Pseudomonas aeruginosa)	Antibiofilm activity Staphylococcus aureus (Staphylococcus aureus)	Antibiofilm activity Candida albicans (Candida albicans)	Antibiofilm activity Enterococcus faecalis (Enterococcus faecalis)	IC50 (HeLa cells [2]) [µM]	other results
C[C@]12CC[C@H](O)CC1=CC[C@@H]1[C@@H]2CC[C@]2(C)C(c3cccnc3)=CC[C@@H]12 [Abiraterone]													binding properties (docking) (CYP450): -10.3 kcal/mol
Cn1c(=O)c2c(ncn2Cc2ccccc2C(F)(F)F)n(C)c1=O [Compound 1a, 1,3-Dimethyl-7-(2-(trifluoromethyl)benzyl)-3,7-dihydro-1H-purine-2,6-dione]	100 ± 2	15.7 ± 0.6	12.4 ± 0.7	8.06 ± 0.03 and 8.06 ± 0.10	11.5 ± 1.2	8.70 ± 0.20	did not show antibiofilm activity and –	did not show antibiofilm activity and –	did not show antibiofilm activity and –	0.5–13.7%	1.08–14.7%		Expression of anti-apoptotic genes (BCL2, BCL-XL, MCL1) (A549 cells [3]): notable downregulation; Expression of pro-apoptotic genes (CASP3, CASP8, CASP9, BAX, BAK1, PUMA, NOXA, CYCS) and cell cycle/stress genes (TP53, CDKN1A, FAS, GADD45A, ATF4) (A549 cells [3]): significant upregulation; Expression of anti-apoptotic genes (BCL2, BCL-XL, MCL1) (HeLa cells [4]): notable downregulation; Expression of pro-apoptotic genes (CASP3, CASP8, CASP9, BAX, BAK1, PUMA, NOXA, CYCS) and cell cycle/stress genes (TP53, CDKN1A, FAS, GADD45A, ATF4) (HeLa cells [4]): significant upregulation; Protein level of BCL-2 (A549 cells [5]): marked decrease; Protein levels of Caspase-3, BAX and Cytochrome C (A549 cells [5]): significant increases; Protein level of BCL-2 (HeLa cells [6]): marked decrease; Protein levels of Caspase-3, BAX and Cytochrome C (HeLa cells [6]): significant increases
Cn1c(=O)c2c(ncn2Cc2cccc(C(F)(F)F)c2)n(C)c1=O [Compound 1b, 1,3-Dimethyl-7-(3-(trifluoromethyl)benzyl)-3,7-dihydro-1H-purine-2,6-dione]	120 ± 3	12.4 ± 0.7	13.6 ± 0.9	8.82 ± 0.20	10.8 ± 0.8	8.16 ± 0.16	did not show antibiofilm activity and –	did not show antibiofilm activity and –	did not show antibiofilm activity and –	0.8–23.9%	5.7–23.1%	14.7 ± 0.7	
Cn1c(=O)c2c(ncn2Cc2ccc(C(F)(F)F)cc2)n(C)c1=O [Compound 1c, 1,3-Dimethyl-7-(4-(trifluoromethyl)benzyl)-3,7-dihydro-1H-purine-2,6-dione]	90 ± 3	13.6 ± 0.9	15.7 ± 0.6	5.73 ± 0.15	14.7 ± 0.7	7.83 ± 0.22	did not show antibiofilm activity and –	did not show antibiofilm activity and –	20.1%	0.9–12.3%	0.7–16.0%	11.5 ± 1.2	
Cn1c(=O)c2c(ncn2Cc2cc(C(F)(F)F)cc(C(F)(F)F)c2)n(C)c1=O [Compound 1d, 1,3-Dimethyl-7-(3,5-bis(trifluoromethyl)benzyl)-3,7-dihydro-1H-purine-2,6-dione]	150 ± 4	29.1 ± 0.5	31.4 ± 1	4.78 ± 0.14	32.4 ± 0.85	4.35 ± 0.13	did not show antibiofilm activity and –	did not show antibiofilm activity and –	did not show antibiofilm activity and –	1.8–11.8%	0.7–23.9%	34.5 ± 1	
Cn1c(=O)c2c(ncn2Cc2ccc(OC(F)(F)F)cc2)n(C)c1=O [Compound 1e, 1,3-Dimethyl-7-(4-(trifluoromethoxy)benzyl)-3,7-dihydro-1H-purine-2,6-dione]	140 ± 3	31.4 ± 1	29.1 ± 0.5	4.81 ± 0.09	34.5 ± 1.25	4.32 ± 0.11	did not show antibiofilm activity and –	did not show antibiofilm activity and –	13.6%	0.4–23.4%	5.1–13.9%	32.4 ± 0.8	
